Test system: db/db mice
Assay: Pathologically changed islets of Langerhans in pancreata of db/db mice after 10 weeks of diet
Type: in vivo, mouse
Settings: 10 weeks of feeding the diet
Procedure: Diets containing EGCG, or protein hydrolysate, or the combination of EGCG and protein hydrolysate, or placebo were administered to db/db mice (6 weeks old). The db/db mouse model of severe type 2 diabetes mellitus is well established and commonly used to assess the antidiabetic properties of nutritional or pharmaceutical interventions. Furthermore, the animals are characterized by a progressive loss of pancreatic function and pathological changes of pancreatic histology and morphology. The pancreatic damage occurring in db/db mice is the consequence of high blood glucose and lipid levels. After 10 weeks of administration of the respective diets pancreata of all mice were removed and assessed for pathologically changed islets of Langerhans.

O=C(O[C@@H]1Cc2c(O)cc(O)cc2O[C@@H]1c1cc(O)c(O)c(O)c1)c1cc(O)c(O)c(O)c1 [EGCG, epigallocatechin gallate]
Pathological islets (in % of total islets) (db/db mice (6 weeks old at start), n = 9 per group, means ± SEM): 36.5 ± 4.1 % of total islets
Effect on pathologically changed islets of Langerhans compared to placebo (in words) (db/db mice): less pathologically changed islets of Langerhans compared to placebo
